Laboratory results as given in ChEMBL document CHEMBL1142966, “Enhanced antileukemic activity of the novel complex 2,5-dihydroxybenzoate molybdenum(VI) against 2,5-dihydroxybenzoate, polyoxometalate of Mo(VI), and tetraphenylphosphonium in the human HL-60 and K562 leukemic cell lines” (J Med Chem, 2007).

Tests used:
Format in all cases: cell-based
K562 [1] = assay: Cytotoxicity against human K562 cells at 1000 ug/mL by trypan blue assay after 48 hrs; settings: k562, 48 h
HL-60 [2] = assay: Cytotoxicity against human HL60 cells at 10000 ug/mL by trypan blue assay after 48 hrs; settings: hl-60, 48 h
K562 [3] = assay: Cytotoxicity against human K562 cells at 10000 ug/mL by trypan blue assay after 72 hrs; settings: k562, 72 h
HL-60 [4] = assay: Cytotoxicity against human HL60 cells at 10000 ug/mL by trypan blue assay after 24 hrs; settings: hl-60, 24 h
K562 [5] = assay: Cytotoxicity against human K562 cells at 10000 ug/mL by trypan blue assay after 48 hrs; settings: k562, 48 h
HL-60 [6] = assay: Cytotoxicity against human HL60 cells at 1000 ug/mL by trypan blue assay after 24 hrs; settings: hl-60, 24 h
K562 [7] = assay: Cytotoxicity against human K562 cells at 100 ug/mL by trypan blue assay after 24 hrs; settings: k562, 24 h
HL-60 [8] = assay: Cytotoxicity against human HL60 cells at 10 ug/mL by trypan blue assay after 72 hrs; settings: hl-60, 72 h
HL-60 [9] = assay: Cytotoxicity against human HL60 cells at 100 ug/mL by trypan blue assay after 24 hrs; settings: hl-60, 24 h
HL-60 [10] = assay: Cytotoxicity against human HL60 cells at 10 ug/mL by trypan blue assay after 24 hrs; settings: hl-60, 24 h
HL-60 [11] = assay: Cytotoxicity against human HL60 cells at 100 ug/mL by trypan blue assay after 48 hrs; settings: hl-60, 48 h
K562 [12] = assay: Cytotoxicity against human K562 cells at 10 ug/mL by trypan blue assay after 24 hrs; settings: k562, 24 h
K562 [13] = assay: Cytotoxicity against human K562 cells at 10 ug/mL by trypan blue assay after 72 hrs; settings: k562, 72 h
K562 [14] = assay: Cytotoxicity against human K562 cells at 100 ug/mL by trypan blue assay after 48 hrs; settings: k562, 48 h
HL-60 [15] = assay: Cytotoxicity against human HL60 cells at 100 ug/mL by trypan blue assay after 72 hrs; settings: hl-60, 72 h
K562 [16] = assay: Cytotoxicity against human K562 cells at 10 ug/mL by trypan blue assay after 48 hrs; settings: k562, 48 h
K562 [17] = assay: Cytotoxicity against human K562 cells at 1000 ug/mL by trypan blue assay after 72 hrs; settings: k562, 72 h
HL-60 [18] = assay: Cytotoxicity against human HL60 cells at 1000 ug/mL by trypan blue assay after 72 hrs; settings: hl-60, 72 h
HL-60 [19] = assay: Cytotoxicity against human HL60 cells at 10 ug/mL by trypan blue assay after 48 hrs; settings: hl-60, 48 h
HL-60 [20] = assay: Cytotoxicity against human HL60 cells at 1000 ug/mL by trypan blue assay after 48 hrs; settings: hl-60, 48 h
K562 [21] = assay: Cytotoxicity against human K562 cells at 100 ug/mL by trypan blue assay after 72 hrs; settings: k562, 72 h
K562 [22] = assay: Cytotoxicity against human K562 cells at 1000 ug/mL by trypan blue assay after 24 hrs; settings: k562, 24 h
HL-60 [23] = assay: Cytotoxicity against human HL60 cells at 10000 ug/mL by trypan blue assay after 72 hrs; settings: hl-60, 72 h
K562 [24] = assay: Cytotoxicity against human K562 cells at 10000 ug/mL by trypan blue assay after 24 hrs; settings: k562, 24 h

Compound `[Cl-].c1ccc([P+](c2ccccc2)(c2ccccc2)c2ccccc2)cc1` [TETRAPHENYLPHOSPHONIUM CHLORIDE] has an Activity (K562 [1]) of 100%, an Activity (HL-60 [2]) of 100% and an Activity (K562 [3]) of 100%. It also gave an Activity (HL-60 [4]) of 100%, an Activity (K562 [5]) of 100% and an Activity (HL-60 [6]) of 100%. It also gave an Activity (K562 [7]) of 41.8%, an Activity (HL-60 [8]) of 100% and an Activity (HL-60 [9]) of 4.5%. The Activity (HL-60 [10]) was 1%, the Activity (HL-60 [11]) was 100% and the Activity (K562 [12]) was 56.8%. The Activity (K562 [13]) was 100%, the Activity (K562 [14]) was 100% and the Activity (HL-60 [15]) was 100%. It also gave an Activity (K562 [16]) of 100%, an Activity (K562 [17]) of 100% and an Activity (HL-60 [18]) of 100%. The Activity (HL-60 [19]) was 100%, the Activity (HL-60 [20]) was 100% and the Activity (K562 [21]) was 100%. The Activity (K562 [22]) was 100%, the Activity (HL-60 [23]) was 100% and the Activity (K562 [24]) was 100%.
